# Assay results: patent US11266711B2, “Oxytocin compositions and methods of use” (Elgan Pharma Ltd, priority 2018, dated 2022)
# Structures can show the parent of a compound that is named as a salt. Numbered stars: 1 amine (or outer) side, 2 acyl side, 3 side chain; on linkers, the order of the positions; unused ones are H or OH. Bridge positions count the residues as written; N and C are the ends. Peptide text beside a SMILES is read from it. X1 = O=C(CCC[*:2])[*:1]
# How the values were obtained:
# [1] = test system: infants of mothers who took the drug during the first 42 days of pregnancy; conditions: mothers took the drug during the first 42 days of pregnancy; other drugs 4.6 per 100, no drugs 2.6 per 100; cited from earlier work
# oxytocin receptor [2] = biological target: T1, oxytocin receptor (Homo sapiens, UniProt P30559); conditions: cited from earlier work
# oxytocin receptor [3] = biological target: T1, oxytocin receptor; conditions: cited from earlier work; remark: listed apart in the source
# [4] = cited from earlier work
# [5] = test system: rat pups chronically exposed to morphine prenatally; test: Naloxone-induced withdrawal in rat pups exposed to morphine prenatally (Example 1); format: in vivo, Sprague-Dawley rats
# [6] = test system: rat pups chronically exposed to morphine prenatally; format: in vivo, Sprague-Dawley rats; conditions: 2 mg/kg s.c. daily, first 10 postnatal days; survival measured for 15 days; vs saline (FIG. 2a)
# [7] = test system: rat pups chronically exposed to fluoxetine prenatally; test: Survival and body weight, rat pups exposed to fluoxetine prenatally (Example 4); format: in vivo, Sprague-Dawley rats; conditions: 2 mg/kg s.c. daily
# [8] = test system: adolescent rats chronically exposed to fluoxetine prenatally; test: Passive Avoidance Test, adolescent rats exposed to fluoxetine prenatally (Example 5); format: in vivo; conditions: 2 mg/kg s.c. daily, first 10 postnatal days; tested postnatal days 31-35; vs saline (FIG. 5)
# [9] = test system: adolescent rats chronically exposed to fluoxetine prenatally; test: Locomotor activity, adolescent rats exposed to fluoxetine prenatally (Example 5); format: in vivo; conditions: 2 mg/kg s.c. daily, first 10 postnatal days; tested postnatal days 31-35; vs saline (data not shown)
# [10] = test system: adolescent rats chronically exposed to fluoxetine prenatally; test: Light/Dark Box, adolescent rats exposed to fluoxetine prenatally (Example 5); format: in vivo; conditions: 2 mg/kg s.c. daily, first 10 postnatal days; tested postnatal days 31-35; vs saline (data not shown)
# [11] = test system: rat pups chronically exposed to morphine prenatally; format: in vivo, Sprague-Dawley rats; conditions: all three doses (0.3, 1, 2 mg/kg) s.c. daily, first 10 postnatal days; vs saline (FIG. 6a)
# [12] = test system: rat pups chronically exposed to morphine prenatally; test: Locomotor activity during withdrawal, rats exposed to morphine prenatally (Example 7); format: in vivo
# [13] = test system: adolescent rats chronically exposed to morphine prenatally; test: Light-Dark Box, adolescent rats exposed to morphine prenatally (Example 8); format: in vivo; conditions: 0.3 mg/kg s.c. daily, first 10 postnatal days; tested postnatal days 31-35; vs saline (FIG. 8a)
# [14] = test system: adolescent rats chronically exposed to morphine prenatally; test: Passive Avoidance Test, adolescent rats exposed to morphine prenatally (Example 8); format: in vivo; conditions: 2 mg/kg s.c. daily, first 10 postnatal days; tested postnatal days 31-35; vs saline (FIG. 8b)
# [15] = test system: adolescent rats chronically exposed to morphine prenatally; test: Automated Three-Chamber Test, adolescent rats exposed to morphine prenatally (Example 9); format: in vivo; conditions: first 10 postnatal days, tested postnatal days 31-35
# From the text: (§1) Briefly, the Three-Chamber Test assesses cognition in the form of social novelty and social memory; Social novelty occurs in three sessions within a three-chambered box with openings between the chambers. After habituation to the empty box, the test animal encounters a novel conspecific under one pencil cup and an empty pencil cup. The test animal then encounters the familiar conspecific and a second novel conspecific under the previously empty pencil cup; Animals that show intact social novelty behavior will show a preference to investigate the novel conspecific; Twenty-four hours later, social memory is tested by placing the test animal back in to the chamber with the two familiar conspecifics; Animals with intact social memory will spend an equal amount of time investigating the two familiar conspecifics. Duration of time spent investigating conspecifics is measured automatically using a SmartCage™.
# [16] = test system: adolescent rats chronically exposed to diazepam prenatally; test: Automated Three-Chamber Test, adolescent rats exposed to diazepam prenatally (Example 13); format: in vivo; conditions: first 10 postnatal days, tested postnatal days 31-35
# From the text: as §1
# healthy rats = test: Survival and body weight during development in healthy rats (Example 14); format: in vivo, Sprague-Dawley rats; conditions: 0.3, 1 or 2 mg/kg daily, first 10 postnatal days; drug naive pups
# [17] = test system: rat pups chronically exposed to diazepam prenatally; conditions: 2 mg/kg s.c. daily, first 10 postnatal days
# [18] = test system: adolescent rats chronically exposed to diazepam prenatally; test: Light-Dark Box, adolescent rats exposed to diazepam prenatally (Example 12); conditions: 1 mg/kg and 2 mg/kg s.c., first 10 postnatal days; tested postnatal days 31-35; vs saline (FIG. 12a)
# [19] = test system: adolescent rats chronically exposed to diazepam prenatally; test: Passive Avoidance Test, adolescent rats exposed to diazepam prenatally (Example 12); conditions: all doses (0.3, 1, 2 mg/kg) s.c., first 10 postnatal days; tested postnatal days 31-35; vs saline (FIG. 12b)
# From the text: Briefly, in the Passive Avoidance Test an animal learns to avoid an unpleasant stimulus by inhibiting locomotion and exploration; On the training day, rats are placed in a brightly lit compartment of a test chamber; The animal quickly moves in to an adjacent dark compartment of the test chamber and receives an unavoidable mild foot shock; Twenty-four hours later during the test phase, the animals are again placed in to the light compartment and the latency to re-enter the dark compartment is measured. Latency to enter a compartment is automatically measured using a SmartCage™.
# [20] = test system: rat pups chronically exposed to diazepam prenatally; test: Locomotor activity during withdrawal, rats exposed to diazepam prenatally (Example 11)
# Experimental: Briefly, locomotor activity is measured by placing an animal in to a small standardized test chamber for a five-minute period. Distance travelled, and time spent active is measured automatically using a SmartCage™.
# [21] = test system: rat pups chronically exposed to diazepam prenatally; test: Survival and body weight, three oxytocin doses, rat pups exposed to diazepam prenatally (Example 10); conditions: first 10 postnatal days
# [22] = 1 or 2 mg/kg s.c. daily, vs saline (FIG. 7a)
# T1 sequence (P30559 whole entry, species assumed): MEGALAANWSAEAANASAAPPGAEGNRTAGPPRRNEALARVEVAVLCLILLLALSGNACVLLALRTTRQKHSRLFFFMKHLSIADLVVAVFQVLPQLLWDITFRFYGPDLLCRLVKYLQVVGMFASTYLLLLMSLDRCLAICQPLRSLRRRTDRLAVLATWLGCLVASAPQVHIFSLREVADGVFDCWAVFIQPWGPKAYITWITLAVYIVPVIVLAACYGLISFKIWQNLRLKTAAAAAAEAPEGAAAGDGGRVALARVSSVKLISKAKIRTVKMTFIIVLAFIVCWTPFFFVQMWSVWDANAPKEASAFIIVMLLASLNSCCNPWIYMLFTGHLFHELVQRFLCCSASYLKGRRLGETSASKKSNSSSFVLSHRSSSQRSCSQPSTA
smiles,measurement,setting,value
"CNC1=Nc2ccc(Cl)cc2C(c2ccccc2)=[N+]([O-])C1 [chlordiazepoxide, Chlordiazepoxide hydrochloride]",severe congenital anomalies among infants,[1],11.4 per 100
"CC[C@H](C)[C@@H]1NC(=O)[C@H](Cc2ccc(OC)cc2)NC(=O)CCCSC[C@@H](C(=O)N2CCC[C@H]2C(=O)N[C@@H](CC(C)C)C(=O)NCC(N)=O)NC(=O)[C@H](CC(N)=O)NC(=O)[C@H](CCC(N)=O)NC1=O [carbetocin, 1-Butanoic acid-2-(O-methyl-L-tyrosine)-1-carbaoxytocin] (Y(Me)IQNCPLG-NH2; linker N-5 via X1)","affinity of the oxytocin receptor, compared with oxytocin",oxytocin receptor [2],equal affinity
same,biological effect relative to endogenous or exogenous oxytocin,oxytocin receptor [3],~50%
O=C1Nc2ccc(Cl)cc2C(c2ccccc2Cl)=NC1O (centres unmarked) [Lorazepam],half-life in adults,[4]; adults,about 12 hours
CC[C@H](C)[C@@H]1NC(=O)[C@H](Cc2ccc(O)cc2)NC(=O)[C@@H](N)CSSC[C@@H](C(=O)N2CCC[C@H]2C(=O)N[C@@H](CC(C)C)C(=O)NCC(N)=O)NC(=O)[C@H](CC(N)=O)NC(=O)[C@H](CCC(N)=O)NC1=O [oxytocin],locomotor activity,"[5]; single dose 2 mg/kg s.c. after naloxone, postnatal day one, up to 30 minutes post-naloxone, vs saline (FIG. 1a)",clear statistically significant reduction
same,scores of rolling behavior,"[5]; single dose 2 mg/kg s.c., up to 45 minutes, vs saline (FIG. 1b)",numerical reduction
same,scores of curling behavior,"[5]; single dose 2 mg/kg s.c., up to 45 minutes, vs saline (FIG. 1c)",numerical reduction
same,percentage survival rates at postnatal day 10,"[5]; single dose 2 mg/kg s.c., vs saline (FIG. 1d)",improved percentage survival rates
same,percentage survival rates,[6],clear statistically significant improvement
same,percentage survival rates,"[7]; first 10 postnatal days, survival measured for 15 days, vs saline (FIG. 4a)",statistical trend towards improvement
same,body weight at postnatal day 36,"[7]; first 10 postnatal days, vs saline (FIG. 4c)",clear statistically significant reduction
same,body weights during the first 10 postnatal days,[7]; vs saline (FIG. 4b),comparable
same,learning and memory function (latency to enter chamber paired with foot shock),[8],clear statistically significant improvement
same,locomotor activity,[9],No meaningful differences
same,anxiety-like behavior,[10],No meaningful differences
same,percentage survival rates for the first 30 postnatal days,[11],clear statistically significant improvement
same,locomotor activity at postnatal day 30,"[12]; 0.3, 1 or 2 mg/kg s.c. daily, first 10 postnatal days, between treatment groups (FIG. 7b)",No meaningful differences
same,locomotor activity on postnatal day 6,[12]; [22],clear statistically significant increase
same,locomotor activity on postnatal days 3 or 9,[12]; [22],not on postnatal days 3 or 9
same,anxiety-like behavior (time in the light chamber),[13],clear statistically significant decrease
same,learning and memory function (latency to enter chamber paired with foot shock),[14],numerical improvement
same,social memory function (time investigating a familiar conspecific),"[15]; 2 mg/kg s.c. daily, vs saline (FIG. 9b)",statistical trend towards improved social memory function
same,social novelty behavior (time investigating a novel conspecific),"[15]; all doses (0.3, 1, 2 mg/kg) s.c. daily, vs saline (FIG. 9a)",trend towards increased social novelty behavior
same,social memory function (time investigating a familiar conspecific),"[16]; 2 mg/kg s.c. daily, vs saline (FIG. 13b)",statistical trend toward improved social memory function
same,social novelty behavior (time investigating a novel animal),"[16]; 1 and 2 mg/kg s.c. daily, vs saline (FIG. 13a)",clear statistically significant increase
same,survival for the first 30 postnatal days,healthy rats,survived for the first 30 postnatal days
same,percentage survival rates,"[17]; survival measured for 15 days, vs saline (FIG. 3a)",clear statistically significant improvement
same,"body weight, various time points of the dosing period",[17]; vs saline (FIG. 3b),clear statistically significant increase
same,body weight at postnatal day 31,[17]; vs saline (FIG. 3c),clear statistically significant decrease
same,anxiety-like behavior (time in the light chamber),[18],clear statistically significant reduction
same,learning and memory function (latency to enter chamber paired with foot shock),[19],clear statistically significant improvement
same,locomotor activity on postnatal day 6,"[20]; 0.3 mg/kg and 2 mg/kg s.c. daily, vs saline (FIG. 11a)",clear statistically significant decrease
same,locomotor activity on postnatal day 30,"[20]; 2 mg/kg s.c. daily, first 10 postnatal days, vs saline (FIG. 11b)",clear statistically significant decrease
same,locomotor activity on postnatal day 9,"[20]; 2 mg/kg s.c. daily, vs saline (FIG. 11a)",clear statistically significant decrease
same,locomotor activity on postnatal days 3 and 6,"[20]; all three doses (0.3, 1, 2 mg/kg) s.c. daily, vs saline",clear statistically significant decrease
same,percentage survival rates for the first 30 postnatal days,"[21]; 2 mg/kg s.c. daily, vs saline (FIG. 10a)",clear statistically significant improvement
same,body weight throughout the first 30 postnatal days,"[21]; all three doses (0.3, 1, 2 mg/kg) s.c. daily, vs saline (FIG. 10b)",clear statistically significant decrease
Cc1nnc2n1-c1ccc(Cl)cc1C(c1ccccc1)=NC2 [Alprazolam],half-life,[4]; in vivo,ten to 24
